In PubChem BioAssay (NCI):
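Dose response: 5 concentrations. Exposure: 48 h. Format: 96-well plates. Endpoint: linear interpolation; highest concentration if not reached. TGI: concentration producing complete growth inhibition.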

Columns and labels:
Assay in all cases: NCI anticancer screen, dose series, 48 h
[1] = system: OVCAR-3 ovarian
[2] = system: EKVX NSCLC
[3] = system: SK-MEL-28 melanoma
[4] = system: SF-268 CNS
[5] = system: UACC-62 melanoma
[6] = system: A549 NSCLC
[7] = system: TK-10 renal
[8] = system: MOLT-4 leukemia
[9] = system: U251 CNS
[10] = system: HOP-62 NSCLC
[11] = system: OVCAR-8 ovarian
[12] = system: CCRF-CEM leukemia
[13] = system: SNB-75 CNS
[14] = system: RPMI-8226 leukemia
[15] = system: K-562 leukemia
[16] = system: SNB-78 CNS
[17] = system: NCI-H522 lung
[18] = system: HCC-2998 colon
[19] = system: SF-539 CNS
[20] = system: MALME-3M melanoma
[21] = system: SK-MEL-5 melanoma
[22] = system: M19-MEL melanoma
[23] = system: SK-OV-3 ovarian
[24] = system: LXFL 529 NSCLC
[25] = system: SF-295 CNS
[26] = system: UACC-257 melanoma
[27] = system: NCI-H23 lung
[28] = system: HOP-92 NSCLC
[29] = system: A498 renal
[30] = system: COLO 205 colon
[31] = system: XF 498 CNS
[32] = system: KM12 colon
[33] = system: HCT-116 colon
[34] = system: 786-0 renal
[35] = system: NCI-H226 lung
[36] = system: HL-60(TB) leukemia
[37] = system: DLD-1 colon
[38] = system: M14 melanoma
[39] = system: NCI-H460 lung
[40] = system: UO-31 renal
[41] = system: LOX IMVI melanoma
[42] = system: DMS 114 small cell lung
[43] = system: HT29 colon
[44] = system: ACHN renal
[45] = system: SK-MEL-2 melanoma
[46] = system: RXF 393 renal
[47] = system: IGROV1 ovarian
[48] = system: KM20L2 colon
[49] = system: RXF-631 renal
[50] = system: SW-620 colon
[51] = system: OVCAR-5 ovarian
[52] = system: CAKI-1 renal
[53] = system: OVCAR-4 ovarian
[54] = system: SN12C renal
[55] = system: HCT-15 colon
[56] = system: SNB-19 CNS
[57] = system: DMS 273 small cell lung
[58] = system: HOP-18 NSCLC

Question: For `Cc1cccc(C)c1NC(=O)C(=O)C(C(=O)c1ccccc1-c1ccccc1)C1OC(=O)c2ccccc21` (configuration not stated), which TGI [1] is on record?
Answer: 38 µM

Question: What about the TGI [2] of the same compound?
Answer: 65.4 µM

Question: And the TGI [3]?
Answer: 61.4 µM

Question: And the TGI [4]?
Answer: 78.4 µM

Question: And the TGI [5]?
Answer: 36.7 µM

Question: What about the TGI [6] of the same compound?
Answer: 72.5 µM

Question: And the TGI [7]?
Answer: 53.7 µM

Question: What about the TGI [8] of the same compound?
Answer: 58.1 µM

Question: What about the TGI [9] of the same compound?
Answer: 30.7 µM

Question: And the TGI [10]?
Answer: 35.7 µM

Question: And the TGI [11]?
Answer: > 100 µM

Question: And the TGI [12]?
Answer: > 100 µM

Question: What about the TGI [13] of the same compound?
Answer: 53.4 µM

Question: What about the TGI [14] of the same compound?
Answer: 60.1 µM

Question: What about the TGI [15] of the same compound?
Answer: > 100 µM

Question: What about the TGI [16] of the same compound?
Answer: > 100 µM

Question: What about the TGI [17] of the same compound?
Answer: 24.9 µM

Question: What about the TGI [18] of the same compound?
Answer: 29.7 µM

Question: What about the TGI [19] of the same compound?
Answer: 28.3 µM

Question: And the TGI [20]?
Answer: 33.4 µM

Question: What about the TGI [21] of the same compound?
Answer: 33.7 µM

Question: And the TGI [22]?
Answer: 34.7 µM

Question: And the TGI [23]?
Answer: 87.6 µM

Question: What about the TGI [24] of the same compound?
Answer: 27.5 µM

Question: And the TGI [25]?
Answer: > 100 µM

Question: What about the TGI [26] of the same compound?
Answer: > 100 µM

Question: And the TGI [27]?
Answer: 30 µM

Question: What about the TGI [28] of the same compound?
Answer: 40 µM

Question: And the TGI [29]?
Answer: 48.9 µM

Question: What about the TGI [30] of the same compound?
Answer: 37.9 µM

Question: And the TGI [31]?
Answer: 30.9 µM

Question: And the TGI [32]?
Answer: 48.9 µM

Question: And the TGI [33]?
Answer: 27.8 µM

Question: And the TGI [34]?
Answer: 37 µM

Question: And the TGI [35]?
Answer: 30.3 µM

Question: And the TGI [36]?
Answer: 88.9 µM

Question: And the TGI [37]?
Answer: 37.3 µM

Question: And the TGI [38]?
Answer: 29.3 µM

Question: And the TGI [39]?
Answer: 78.2 µM

Question: And the TGI [40]?
Answer: 57.6 µM

Question: And the TGI [41]?
Answer: 45 µM

Question: And the TGI [42]?
Answer: 32.4 µM

Question: What about the TGI [43] of the same compound?
Answer: > 100 µM

Question: And the TGI [44]?
Answer: > 100 µM

Question: And the TGI [45]?
Answer: 35.6 µM

Question: And the TGI [46]?
Answer: 28.4 µM

Question: And the TGI [47]?
Answer: 64.1 µM

Question: And the TGI [48]?
Answer: 67.7 µM

Question: What about the TGI [49] of the same compound?
Answer: > 100 µM

Question: And the TGI [50]?
Answer: 65.2 µM

Question: What about the TGI [51] of the same compound?
Answer: 48.9 µM

Question: Which results are given for `COC(=O)/C=C1\CCC(C)O1` (configuration not stated)?
Answer: TGI [1]: > 100 µM; TGI [2]: > 100 µM; TGI [4]: > 100 µM; TGI [5]: > 100 µM; TGI [6]: > 100 µM; TGI [7]: > 100 µM; TGI [8]: > 100 µM; TGI [9]: > 100 µM; TGI [10]: > 100 µM; TGI [11]: > 100 µM; TGI [12]: > 100 µM; TGI [13]: 94 µM; TGI [14]: > 100 µM; TGI [15]: > 100 µM; TGI [16]: > 100 µM; TGI [52]: > 100 µM; TGI [53]: > 100 µM; TGI [18]: > 100 µM; TGI [19]: > 100 µM; TGI [20]: > 100 µM; TGI [21]: > 100 µM; TGI [22]: > 100 µM; TGI [23]: > 100 µM; TGI [24]: > 100 µM; TGI [54]: > 100 µM; TGI [25]: > 100 µM; TGI [26]: > 100 µM; TGI [27]: > 100 µM; TGI [28]: > 100 µM; TGI [30]: > 100 µM; TGI [31]: > 100 µM; TGI [32]: > 100 µM; TGI [33]: > 100 µM; TGI [34]: > 100 µM; TGI [55]: > 100 µM; TGI [36]: > 100 µM; TGI [37]: > 100 µM; TGI [38]: > 100 µM; TGI [39]: > 100 µM; TGI [56]: > 100 µM; TGI [40]: > 100 µM; TGI [41]: > 100 µM; TGI [42]: > 100 µM; TGI [43]: > 100 µM; TGI [44]: > 100 µM; TGI [45]: > 100 µM; TGI [46]: > 100 µM; TGI [47]: > 100 µM; TGI [57]: > 100 µM; TGI [48]: > 100 µM; TGI [49]: > 100 µM; TGI [50]: > 100 µM; TGI [51]: > 100 µM

Question: How did the TGI [2] turn out when `CNS(=O)(=O)NNS(=O)(=O)c1ccc(Br)cc1` was run?
Answer: > 100 µM

Question: What about the TGI [3] of the same compound?
Answer: > 100 µM

Question: What about the TGI [4] of the same compound?
Answer: > 100 µM

Question: And the TGI [5]?
Answer: > 100 µM

Question: What about the TGI [6] of the same compound?
Answer: > 100 µM

Question: What about the TGI [7] of the same compound?
Answer: > 100 µM

Question: And the TGI [9]?
Answer: > 100 µM

Question: And the TGI [10]?
Answer: > 100 µM

Question: What about the TGI [11] of the same compound?
Answer: > 100 µM

Question: And the TGI [12]?
Answer: > 100 µM

Question: What about the TGI [13] of the same compound?
Answer: > 100 µM

Question: And the TGI [14]?
Answer: > 100 µM

Question: What about the TGI [15] of the same compound?
Answer: > 100 µM

Question: What about the TGI [16] of the same compound?
Answer: > 100 µM

Question: What about the TGI [52] of the same compound?
Answer: > 100 µM

Question: And the TGI [53]?
Answer: > 100 µM

Question: And the TGI [17]?
Answer: > 100 µM

Question: And the TGI [18]?
Answer: > 100 µM

Question: What about the TGI [19] of the same compound?
Answer: > 100 µM

Question: What about the TGI [20] of the same compound?
Answer: > 100 µM

Question: And the TGI [21]?
Answer: > 100 µM

Question: What about the TGI [22] of the same compound?
Answer: > 100 µM

Question: And the TGI [23]?
Answer: > 100 µM

Question: What about the TGI [24] of the same compound?
Answer: > 100 µM

Question: What about the TGI [58] of the same compound?
Answer: > 100 µM

Question: What about the TGI [26] of the same compound?
Answer: > 100 µM

Question: What about the TGI [27] of the same compound?
Answer: > 100 µM

Question: And the TGI [28]?
Answer: > 100 µM

Question: What about the TGI [29] of the same compound?
Answer: > 100 µM

Question: And the TGI [30]?
Answer: > 100 µM

Question: And the TGI [31]?
Answer: > 100 µM

Question: And the TGI [33]?
Answer: > 100 µM

Question: And the TGI [34]?
Answer: > 100 µM

Question: What about the TGI [35] of the same compound?
Answer: > 100 µM

Question: And the TGI [55]?
Answer: > 100 µM

Question: And the TGI [36]?
Answer: > 100 µM

Question: What about the TGI [37] of the same compound?
Answer: > 100 µM

Question: What about the TGI [38] of the same compound?
Answer: > 100 µM

Question: What about the TGI [39] of the same compound?
Answer: > 100 µM

Question: And the TGI [56]?
Answer: > 100 µM

Question: And the TGI [40]?
Answer: > 100 µM

Question: And the TGI [41]?
Answer: > 100 µM

Question: What about the TGI [42] of the same compound?
Answer: > 100 µM

Question: What about the TGI [43] of the same compound?
Answer: > 100 µM

Question: What about the TGI [44] of the same compound?
Answer: > 100 µM

Question: And the TGI [45]?
Answer: > 100 µM

Question: What about the TGI [46] of the same compound?
Answer: > 100 µM

Question: What about the TGI [47] of the same compound?
Answer: > 100 µM

Question: What about the TGI [57] of the same compound?
Answer: > 100 µM

Question: What about the TGI [48] of the same compound?
Answer: > 100 µM

Question: And the TGI [49]?
Answer: > 100 µM

Question: What about the TGI [50] of the same compound?
Answer: > 100 µM

Question: What about the TGI [51] of the same compound?
Answer: > 100 µM
